# Patent US20260373274A1, “PEPTIDE-LINKED DRUG DELIVERY SYSTEM” (priority 2022, published 2026)
# Entries after “also recorded” stand apart in the source; their conditions may differ. Where a SMILES comes first, the peptide text is derived from it.
# What was measured:
# [1] = Hematology, complete blood count; assay type: in vivo, female BALB/c mice; settings: i.v. weekly for 3 weeks; DM1/DM1-Bdd 0.75 mg/kg, CIS 10 mg/kg
# Description: (§1) Necropsy—Seven- to 9-week-old female BALB/c mice (n=4/group) were treated weekly with PBS, DM1, DM1-peptide (0.75 mg/kg of drug content), or cisplatin (10 mg/kg) via tail-vein injection (150 μL). At the end of a 3-week treatment, mice were euthanized. The organs/tissues were harvested, fixed in 10% neutral buffered formalin for 2 days. Bones were decalcified in a formic acid solution (Surgipath Decalcifier I; Leica Biosystems, Weltzar, Germany). The samples were then embedded in paraffin, sectioned (5 μm), and stained with H&E for examination by an ACVP board certified anatomic pathologist.
# (§2) Hematology and biochemistry—Blood samples were collected via cardiac puncture. A complete blood count, including red blood cell, white blood cell, reticulocyte and platelet counts, with an automated differential leukocyte count, was performed using an IDEXX Procyte DX hematology analyzer (iDEXX, Westbrook. ME). Blood smears were prepared, stained with modified Wright's stain, examined in a blinded fashion by a board-certified veterinary clinical pathologist (T.S.), and imaged using a Nikon Eclipse TE2000-U fluorescent microscope equipped with a photometrics CoolSNAP HQ^2 camera (Nikon Corporation, Tokyo, Japan). The blood was also centrifuged (1,500×G) for 15 min to obtain the serum for biochemical analysis using a Beckman Coulter AU680 analyzer (Beckman Coulter, Brea, CA).
# Serum biochemistry = assay type: in vivo, female BALB/c mice; settings: i.v. weekly for 3 weeks; DM1 0.75 mg/kg, CIS 10 mg/kg
# Source text: as §1, with “At” for “Necropsy—Seven- to 9-week-old female BALB/c mice (n=4/group) were treated weekly with PBS, DM1, DM1-peptide (0.75 mg/kg of drug content), or cisplatin (10 mg/kg) via tail-vein injection (150 μL). At”
# as §2
# [2] = test system: major organs (liver, spleen, heart, lungs, and kidneys); test: Necropsy, histopathology of major organs; assay type: in vivo, female BALB/c mice; settings: i.v. weekly for 3 weeks; DM1/DM1-Bdd 0.75 mg/kg, CIS 10 mg/kg
# Source text: as §1, with “At” for “Necropsy—Seven- to 9-week-old female BALB/c mice (n=4/group) were treated weekly with PBS, DM1, DM1-peptide (0.75 mg/kg of drug content), or cisplatin (10 mg/kg) via tail-vein injection (150 μL). At”
# [3] = Fluorescence imaging of Cyanine5.5-labeled peptides (in vivo, ex vivo, urine); set-up: species or system Female SHO mice; settings: i.v.
# Source text: The animals were then euthanized.
# [4] = test system: orthotopic human UMUC-3 tumors; test: Therapeutic efficacy for treating BC, orthotopic UMUC-3/GFP-Luc xenograft; settings: 5 mg/kg weekly
# Source text: These animals were immediately euthanized I week after the completion of the treatment schedule.
# Slides were then counterstained with Hematoxylin.
# [5] = test system: kidney injury molecule-1 (KIM-1) and neutrophil gelatinase-associated lipocalin (NGAL); test: Nephrotoxicity studies, urinary renal injury biomarkers by ELISA; assay type: in vivo, BALB/c mice; settings: single i.v. dose; 3 days
# Description: The level of the acute renal injury biomarkers, neutrophil gelatinase-associated lipocalin (NGAL) and kidney injury molecule-1 (KIM-1) in the urine samples, were measured using ELISA assays according to the manufacturer's instructions (R&D Systems, Minneapolis, MN). […] All the animals (n=3/group) were euthanized at the end of the treatment and the kidneys were collected and fixed in 10% neutral buffered formalin. The tissues were then processed, embedded in paraffin, sectioned, and stained with H&E. Immunohistochemistry (IHC) for kidney injury (NGAL and KIM-I) was also performed.
compound,measurement,setting,value
"N.N.[Cl][Pt][Cl] [CIS, cis-dichlorodiammine platinum(II)]","red blood cell, leukocyte, or platelet counts or morphologic features",[1],thrombocytopenia and lymphopenia
same,muscle injury (CK activity),Serum biochemistry,induced muscle injury (CK activity)
same,"histopathology of liver, spleen, heart, lungs, or kidneys",[2],"degeneration and necrosis of the proximal renal tubules, lung inflammation, and depletion of both erythrocytes and extramedullary hematopoiesis (EMH) in spleen"
CN1/C(=C/C=C/C=C/C2=[N+](CCCCCC(=O)NCCC(=O)N[C@@H](CCCCN)C(=O)N[C@@H](CC(=O)O)C(=O)NCCC(=O)N[C@@H](CCCCN)C(=O)N[C@@H](CC(=O)O)C(=O)NCCC(=O)N[C@@H](CCCCN)C(=O)N[C@@H](CC(=O)O)C(=O)NCCC(=O)N[C@@H](CCCCN)C(=O)N[C@@H](CC(=O)O)C(N)=O)c3ccc4ccccc4c3C2(C)C)C(C)(C)c2c1ccc1ccccc21 [Cy-BKD] (HELM PEPTIDE1{[CN1/C(=C/C=C/C=C/C2=[N+](CCCCCC(=O)[*:2])c3ccc4ccccc4c3C2(C)C)C(C)(C)c2c1ccc1ccccc21].[bAla].K.D.[bAla].K.D.[bAla].K.D.[bAla].K.D.[am]}$$$$V2.0),main uptake organ,[3],mainly taken up by the liver
CN1/C(=C/C=C/C=C/C2=[N+](CCCCCC(=O)NCCC(=O)N[C@@H](CCCCN)C(=O)N[C@@H](CCCCN)C(=O)NCCC(=O)N[C@@H](CCCCN)C(=O)N[C@@H](CCCCN)C(=O)NCCC(=O)N[C@@H](CCCCN)C(=O)N[C@@H](CCCCN)C(=O)NCCC(=O)N[C@@H](CCCCN)C(=O)N[C@@H](CCCCN)C(N)=O)c3ccc4ccccc4c3C2(C)C)C(C)(C)c2c1ccc1ccccc21 [Cy-BKK] (HELM PEPTIDE1{[CN1/C(=C/C=C/C=C/C2=[N+](CCCCCC(=O)[*:2])c3ccc4ccccc4c3C2(C)C)C(C)(C)c2c1ccc1ccccc21].[bAla].K.K.[bAla].K.K.[bAla].K.K.[bAla].K.K.[am]}$$$$V2.0),main uptake organ,[3],mainly taken up by the liver
"COc1cccc2c1C(=O)c1c(O)c3c(c(O)c1C2=O)C[C@@](O)(C(=O)CO)C[C@@H]3O[C@H]1C[C@H](N)[C@H](O)[C@H](C)O1 [DOX, Doxorubicin, reference compound]",body weight,[4],all the animals continuously losing weight
same,life expectancy compared to the PBS control / mortality,[4],shorter life expectancy compared to the PBS control; also recorded: died prior to receiving the final dose; also recorded: caused mortality
"Nc1ccn([C@@H]2O[C@H](CO)[C@@H](O)C2(F)F)c(=O)n1 [GEM, gemcitabine]","induction of KIM-1 and/or NGAL, 3 days",[5],continued induction of KIM-1 and/or NGAL
"CO[C@@]12[C@H](COC(N)=O)C3=C(C(=O)C(C)=C(N)C3=O)N1C[C@@H]1N[C@@H]12 [MIT, Mitomycin]","induction of KIM-1 and/or NGAL, 3 days",[5],continued induction of KIM-1 and/or NGAL
"Cyanine5.5 [free Cy, reference compound]",main uptake organ,[3],mainly taken up by the liver
